This is an account of results in ChEMBL document CHEMBL1255263, “Activity of the Diaminopyrimidine AR-709 against recently collected multidrug-resistant isolates of invasive Streptococcus pneumoniae from North America” (2008).

Test [1] has as its system Streptococcus pneumoniae. The experiment in a line: Antibacterial activity against multidrug resistant Streptococcus pneumoniae […] assessed as resistant strains by CLSI microdilution susceptibility testing method. It is filed as functional. Background: Dilution methods test growth across graded concentrations, often in twofold steps.
In test [2] the test system is Streptococcus pneumoniae. The experiment in a line: Antibacterial activity against multidrug resistant Streptococcus pneumoniae […] by CLSI microdilution susceptibility testing method. It is filed as functional.

SMILES strings stand for the structures. ≈ marks a conversion by molar mass, not a printed value. Bounds are passed on as bounds.

For `C[C@H]1COc2c(N3CCN(C)CC3)c(F)cc3c(=O)c(C(=O)O)cn1c23.C[C@H]1COc2c(N3CCN(C)CC3)c(F)cc3c(=O)c(C(=O)O)cn1c23.O` [LEVOFLOXACIN], the Activity in the test with Streptococcus pneumoniae [1] was 21%. In addition, in the test on Streptococcus pneumoniae [2], the MIC50 stood at 1 µg/mL and the MIC90 is > 8 µg/mL.

For `C[C@H]1c2cccc(O)c2C(=O)C2=C(O)[C@]3(O)C(=O)C(C(N)=O)=C(O)[C@@H](N(C)C)[C@@H]3[C@@H](O)[C@@H]21.O` [DOXYCYCLINE], the Activity in the test with Streptococcus pneumoniae [1] turned out to be 40.6%. In the test on Streptococcus pneumoniae [2], this compound returned an MIC50 of 0.12 µg/mL and an MIC90 of 8 µg/mL.

As to `CC1(C)S[C@@H]2[C@H](NC(=O)[C@H](N)c3ccc(O)cc3)C(=O)N2[C@H]1C(=O)O` [AMOXICILLIN], the Activity in the test with Streptococcus pneumoniae [1] is listed as 48.2%. Further, in the test on Streptococcus pneumoniae [2], the MIC50 worked out at 2 µg/mL (≈ 5.47 µM) and the MIC90 amounted to 8 µg/mL (≈ 21.9 µM).

Regarding `CC1(C)S[C@@H]2[C@H](NC(=O)Cc3ccccc3)C(=O)N2[C@H]1C(=O)O` [PENICILLIN G], the Activity in the test on Streptococcus pneumoniae [1] is 85.7%. In the test on Streptococcus pneumoniae [2], this compound registered an MIC50 of 4 µg/mL (≈ 12 µM) and an MIC90 of 4 µg/mL (≈ 12 µM).

In the case of `CO/N=C(\C(=O)N[C@@H]1C(=O)N2C(C(=O)O)=C(COC(C)=O)CS[C@H]12)c1csc(N)n1` [CEFOTAXIME], in the test with Streptococcus pneumoniae [1], the Activity was found to be 41.1%. Besides, in the test on Streptococcus pneumoniae [2], the MIC50 came out at 1 µg/mL (≈ 2.2 µM) and the MIC90 was found to be 2 µg/mL (≈ 4.39 µM).

In the test on Streptococcus pneumoniae [2], `COc1cc(Cc2cnc(N)nc2N)c2cc(Cc3c(C(=O)N(C)C)[nH]c4ccc(Cl)cc34)oc2c1OC` showed an MIC50 of 0.25 µg/mL (≈ 0.467 µM) and an MIC90 of 0.5 µg/mL (≈ 0.935 µM).

As to `CCC[C@@H]1C[C@@H](C(=O)N[C@@H]([C@H]2O[C@H](SC)[C@H](O)[C@@H](O)[C@H]2O)[C@H](C)Cl)N(C)C1` [CLINDAMYCIN], in the test with Streptococcus pneumoniae [1], the Activity was determined as 34.8%. Also, in the test with Streptococcus pneumoniae [2], the MIC50 was found to be 0.06 µg/mL (≈ 0.141 µM) and the MIC90 is > 8 µg/mL.

In the case of `C[C@@H](O)[C@H]1C(=O)N2C(C(=O)O)=C(S[C@@H]3CN[C@H](C(=O)N(C)C)C3)[C@H](C)[C@H]12` [MEROPENEM], the Activity in the test with Streptococcus pneumoniae [1] was 75.9%. In the test with Streptococcus pneumoniae [2], this compound yielded an MIC50 of 0.5 µg/mL (≈ 1.3 µM) and an MIC90 of 1 µg/mL (≈ 2.61 µM).

`CC[C@H]1OC(=O)[C@H](C)[C@@H](O[C@H]2C[C@@](C)(OC)[C@@H](O)[C@H](C)O2)[C@H](C)[C@@H](O[C@@H]2O[C@H](C)C[C@H](N(C)C)[C@H]2O)[C@](C)(O)C[C@@H](C)C(=O)[C@H](C)[C@@H](O)[C@]1(C)O` [ERYTHROMYCIN]: the Activity in the test on Streptococcus pneumoniae [1] is given as 83.5%. Moreover, in the test on Streptococcus pneumoniae [2], the MIC50 stood at 8 µg/mL (≈ 10.9 µM) and the MIC90 is > 32 µg/mL.

As a reminder, the MIC50 is the lowest concentration that inhibits either 50% of growth or 50% of the strains tested, depending on the study. Low values mean greater potency, high ones weaker potency. As usually defined, the MIC90 is the lowest concentration that inhibits either 90% of growth or 90% of the strains tested, depending on the study.
